Holding throughout (test): Ba/F3 cell growth inhibition (CellTiter-Glo, 72 hours)
Holding throughout (assay type): cell-based

One assay has as its system Ba/F3 parental. Particulars: Mus musculus, BaF3, Ba/F3 parental cells, read-out: Ba/F3 GI50s (μM) parental. The procedure:
(§1) Seeding 3000 cells per well in a 96-well plate. After cell stabilization, treat the cells with compounds diluted in […] at a ⅓ serial dilution and culture for 72 hours. Following treatment with CellTiter-Glo, luminescence is produced only in the presence of ATP, as luciferase degrades luciferin. Luminescence values were measured using Envision (PerkinElmer). Based on the measured luminescence values, the concentration of compounds causing cell death was calculated to determine the GI50 value.
(§2) The activity values were categorized into three levels. • A: IC50<1 μM • B: 1 μM≤IC50<10 μM, • C: IC50≥10 μM

The target in the next assay is T1, Ba/F3 FLT3 (ITD/D835Y) (Homo sapiens, UniProt P36888, D835Y, cells depend on it, form not given).
T1 sequence (P36888 1-993 D835Y): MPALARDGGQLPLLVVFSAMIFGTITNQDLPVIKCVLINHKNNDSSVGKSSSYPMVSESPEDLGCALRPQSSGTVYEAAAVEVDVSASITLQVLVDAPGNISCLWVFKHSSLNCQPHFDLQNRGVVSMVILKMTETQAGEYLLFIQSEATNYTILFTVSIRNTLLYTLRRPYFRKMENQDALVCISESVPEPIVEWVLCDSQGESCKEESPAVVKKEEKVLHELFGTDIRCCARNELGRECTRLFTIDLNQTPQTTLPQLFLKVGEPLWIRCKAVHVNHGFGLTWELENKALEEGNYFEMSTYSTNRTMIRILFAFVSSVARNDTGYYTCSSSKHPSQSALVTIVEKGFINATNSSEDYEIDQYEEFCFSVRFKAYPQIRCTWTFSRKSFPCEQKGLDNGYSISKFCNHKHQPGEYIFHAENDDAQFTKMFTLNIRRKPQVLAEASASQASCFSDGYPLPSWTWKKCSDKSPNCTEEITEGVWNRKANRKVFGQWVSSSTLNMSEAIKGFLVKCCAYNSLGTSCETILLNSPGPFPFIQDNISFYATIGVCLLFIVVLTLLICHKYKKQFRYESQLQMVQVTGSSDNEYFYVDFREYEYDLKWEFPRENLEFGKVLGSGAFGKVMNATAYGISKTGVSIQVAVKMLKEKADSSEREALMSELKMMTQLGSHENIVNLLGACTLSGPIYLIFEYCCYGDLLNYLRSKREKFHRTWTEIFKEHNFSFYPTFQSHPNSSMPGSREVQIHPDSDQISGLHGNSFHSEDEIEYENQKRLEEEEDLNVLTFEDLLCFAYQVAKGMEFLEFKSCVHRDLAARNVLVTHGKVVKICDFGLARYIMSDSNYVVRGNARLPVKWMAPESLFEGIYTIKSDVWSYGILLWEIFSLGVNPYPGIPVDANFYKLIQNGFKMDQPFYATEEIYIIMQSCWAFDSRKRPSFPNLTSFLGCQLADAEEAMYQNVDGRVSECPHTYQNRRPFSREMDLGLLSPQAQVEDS
Particulars: read-out: Ba/F3 GI50s (μM) FLT3 (ITD/D835Y). The procedure:
as §1, §2

The target of the next assay is T2, Ba/F3 FLT3 (ITD) (Homo sapiens, UniProt P36888, cells depend on it, form not given).
T2 sequence (P36888 1-993): T1 sequence (P36888 1-993 D835Y) with Y835D
Particulars: read-out: Ba/F3 GI50s (μM) FLT3 (ITD). The procedure: as §1, §2

Results on 9 compounds are retold here after patent US20250136614A1, “2,7-SUBSTITUTED PYRROLO[2,1-F][1,2,4]TRIAZINE COMPOUND HAVING PROTEIN KINASE INHIBITORY ACTIVITY” (Magicbullettherapeutics Co., Ltd., priority 2021, published 2025).

Where a chain is given by its changes, count along the chain named. Some results are limits rather than exact numbers.

On to `O=C1CCCCCCOc2ccc(cc2)-c2ccc3cnc(nn23)Nc2cnn(c2)C2CCN(CCCN1)CC2` [Example 27, (2^1Z,4^4E)-4^1H-17-oxa-3,9-diaza-2(7,2)-pyrrolo[2,1-f1][1,2,4]triazina-5(4,1)-piperidina-4(4,1)-pyrazola-1(1,4)-benzenacycloheptadecaphan-10-one], for which the IC50 in the assay with Ba/F3 parental lay within 1 to 10 µM. The GI50 on Ba/F3 FLT3 (ITD/D835Y) and at Ba/F3 FLT3 (ITD) was below 1 µM each time.
As to `CS(=O)(=O)Nc1cccc(-c2ccc3cnc(Nc4ccc(N5CCN(CCCCCCCCCCCOc6cccc7c6C(=O)N(C6CCC(=O)NC6=O)C7=O)CC5)cc4)nn23)c1` (stereo not drawn) [Example 42], the IC50 with Ba/F3 parental was in the range of 1 to 10 µM. Also, the GI50 on Ba/F3 FLT3 (ITD/D835Y) was 1 to 10 µM; at Ba/F3 FLT3 (ITD), below 1 µM.
Consider `Cc1ncsc1-c1ccc(CNC(=O)[C@@H]2C[C@@H](O)CN2C(=O)[C@@H](NC(=O)COCCN2CCN(c3ccc(Nc4ncc5ccc(-c6cccc(NS(C)(=O)=O)c6)n5n4)cc3)CC2)C(C)(C)C)cc1` [Example 83, (2S,4R)-1-((S)-3,3-dimethyl-2-(2-(2-(4-(4-((7-(3-(methanesulfonamido)phenyl)pyrrolo[2,1-f][1,2,4]triazin-2-yl)amino)phenyl)piperazin-1-yl)ethoxy)acetaamino)butanoyl)-4-hydroxy-N-(4-(4-methylthiazol-5-yl)benzyl)pyrrolidin-2-carboxamide], for which the IC50 in the assay with Ba/F3 parental lay in the range of 1 to 10 µM. Also, the GI50 on Ba/F3 FLT3 (ITD/D835Y) and at Ba/F3 FLT3 (ITD) was below 1 µM throughout.
On to `COc1cc2ccc1Nc1ncc3ccc(n3n1)-c1ccc(cc1)OCCOCC(=O)NCCCO2` [Example 34, (Z)-42-methoxy-5,12,15-trioxa-3,9-diaza-2(7,2)-pyrrolo[2,1-f][1,2,4]triazina-1,4(1,4)-dibenzenacyclopentadecaphan-10-one], for which, in the assay with Ba/F3 parental, the IC50 is at least 10 µM. Further, the GI50 at Ba/F3 FLT3 (ITD/D835Y) and on Ba/F3 FLT3 (ITD) was 1 to 10 µM throughout.
For the compound `COc1cccc(NC(=O)N2CCCn3cc(cn3)Nc3ncc4ccc(n4n3)-c3ccc(cc3)OCC2)c1` [Example 7, (2^1Z,4^4E)-N-(3-methoxyphenyl)-4^1H-11-oxa-3,8-diaza-2(7,2)-pyrrolo[2,1-f][1,2,4]triazina-4(4,1)-pyrazola-1(1,4)-benzenecycloundecaphane-8-carboxamide], in the assay on Ba/F3 parental, the IC50 was at least 10 µM. In addition, the GI50 on Ba/F3 FLT3 (ITD/D835Y) and on Ba/F3 FLT3 (ITD) was below 1 µM in each case.
Consider `O=C1CCCCCCOc2ccc(cc2)-c2ccc3cnc(nn23)Nc2ccc(cc2)N2CCN(CCCN1)CC2` [Example 23, (Z)-17-oxa-3,9-diaza-2(7,2)-pyrrolo[2,1-f][1,2,4]triazina-5(1,4)-piperazina-1,4(1,4)-dibenzenacycloheptadecaphan-10-one], for which the IC50 in the assay on Ba/F3 parental was at least 10 µM. Moreover, the GI50 at Ba/F3 FLT3 (ITD/D835Y) and at Ba/F3 FLT3 (ITD) was below 1 µM each time.
Take `O=C1CCCCCCOc2ccc(cc2)-c2ccc3cnc(nn23)Nc2ccc(cc2)N2CCN1CC2` [Example 24, (Z)-13-oxa-3-aza-2(7,2)-pyrrolo[2,1-f][1,2,4]triazina-5(1,4)-piperazina-1,4(1,4)-dibenzenacyclotridecaphan-6-one]: the IC50 in the assay on Ba/F3 parental is 1 to 10 µM. For the same compound, the GI50 on Ba/F3 FLT3 (ITD/D835Y) and on Ba/F3 FLT3 (ITD) was 1 to 10 µM in each case.
Consider `CS(=O)(=O)Nc1cccc(-c2ccc3cnc(Nc4ccc(N5CCN(CCCOc6cccc7c6C(=O)N(C6CCC(=O)NC6=O)C7=O)CC5)cc4)nn23)c1` (stereo not drawn) [Example 40], for which the IC50 with Ba/F3 parental is 1 to 10 µM. In addition, the GI50 at Ba/F3 FLT3 (ITD/D835Y) and at Ba/F3 FLT3 (ITD) was below 1 µM in each case.
As to `O=C1CCCCCCn2cc(cn2)-c2ccc3cnc(nn23)Nc2ccc(cc2)OCCCN1` [Example 17, (1^4Z,2^1Z)-1′H-5-oxa-3,9-diaza-2(7,2)-pyrrolo[2,1-f][1,2,4]triazina-1(4,1)-pyrazola-4(1,4)-benzenacyclohexadecaphan-10-one], the IC50 in the assay on Ba/F3 parental is at least 10 µM. For the same compound, the GI50 at Ba/F3 FLT3 (ITD/D835Y) and at Ba/F3 FLT3 (ITD) was 1 to 10 µM each time.
